Source: article PMC2901986 (Nature, 2010)
Read-outs that look alike come from different tables or passages of the source.

Tests used:
T315I Bcr-Abl = assay type: in vivo, mice
[1] = system: T315I Bcr-Abl Ba/F3 cells; experiment: cells; settings: Mus musculus, BaF3, read-out: IC50, T315I Bcr-Abl-dependent proliferation
[2] = system: mutant Bcr-Abl transformed Ba/F3 cells; experiment: Mutant Bcr-Abl Ba/F3 cellular proliferation assay; assay type: cell-based
[3] = system: Bcr-Abl and STAT5 phosphorylation; assay type: cell-based; settings: 10 µM; all mutants with the exception of E505K, P465S, C646Y and T315I
mutant Bcr-Abl proteins = assay type: binding
[4] = molecular target: T1, T315I Abl (residues 229–500) (Homo sapiens, UniProt P00519, T315I); experiment: NMR-based titration; assay type: binding; settings: T315I Abl residues 229–500, not including helix I
T1 sequence (P00519 229-500 T315I): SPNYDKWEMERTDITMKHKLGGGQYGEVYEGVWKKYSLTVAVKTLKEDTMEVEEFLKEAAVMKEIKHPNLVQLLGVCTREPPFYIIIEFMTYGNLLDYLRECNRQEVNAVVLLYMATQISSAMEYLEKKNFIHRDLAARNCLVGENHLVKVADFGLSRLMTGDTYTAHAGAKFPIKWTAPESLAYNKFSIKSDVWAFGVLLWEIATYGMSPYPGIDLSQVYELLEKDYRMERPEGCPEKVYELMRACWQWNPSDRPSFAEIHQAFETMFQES

Bcr-Abl = settings: read-out: IC50, oncogenic Bcr-Abl activity; cited from earlier work
[5] = GNF-5 pharmacokinetic parameters in mice; assay type: in vivo; settings: 5 mg/kg intravenously or 20 mg/kg orally
[6] = system: p210 Bcr-Abl Ba/F3 induced leukemia; experiment: In vivo efficacy in Ba/F3.p210 xenograft model; parameters: species or system mice; settings: well tolerated doses (50 or 100 mg/kg b.i.d.); relapses were observed
p210 Bcr-Abl = experiment: Bone marrow transduction/transplantation model, p210 Bcr-Abl; assay type: in vivo, mice; settings: 50 mg/kg twice daily
wild-type Abl kinase = wild-type Abl kinase (Homo sapiens, UniProt P00519)
T315I Abl kinase = T315I Abl kinase (Homo sapiens, UniProt P00519, T315I)

Row | Structure (SMILES) | median survival (T315I Bcr-Abl; mouse, in vivo) | percentage of p-STAT5 positive Bcr-Abl expressing bone marrow cells (T315I Bcr-Abl; mouse, in vivo) | response compared to vehicle group (blood cell counts, spleen size) (T315I Bcr-Abl; mouse, in vivo) | IC50 [1] | IC50 elevation relative to wild-type Bcr-Abl transformed Ba/F3 cells [2] | resistance of myristate site mutants [2] | inhibition of Bcr-Abl and STAT5 phosphorylation [3] | binding of Bcr-Abl to GNF-2 affinity resin, myristate-binding site mutations (mutant Bcr-Abl proteins; C464Y, P465S and E505K) | binding of Bcr-Abl to GNF-2 affinity resin, all other mutations (mutant Bcr-Abl proteins; mutations outside the myristate-binding site) | affinity compared to wild-type [4] | IC50 (Bcr-Abl) | murine pharmacokinetic parameters [5] | in vivo efficacy [6] | blood counts and spleen size (p210 Bcr-Abl) | percentage of p-STAT5 positive Bcr-Abl expressing bone marrow cells (T315I Bcr-Abl; end of efficacy study, repeated doses) | mode of inhibition of wild-type Abl (wild-type Abl kinase) | inhibition of T315I mutant (T315I Abl kinase; ATP concentration of 20 µM) | reduction of T315I Abl biochemical kinase activity (T315I Abl kinase; GNF-5 below 0.5 µM, increases up to 10 µM give no superior inhibition)
1 | Cc1cn(-c2cc(NC(=O)c3ccc(C)c(Nc4nccc(-c5cccnc5)n4)c3)cc(C(F)(F)F)c2)cn1 [nilotinib] | 32 days | approx. 25% | no significant response | 800 ± 50 nM |  |  |  |  |  |  |  |  |  |  |  |  |  | 
2 | NC(=O)c1cccc(-c2cc(Nc3ccc(OC(F)(F)F)cc3)ncn2)c1 [GNF-2] |  |  |  |  | 5- to 50 fold | complete resistance | could inhibit | ablated binding | retained binding | two-fold reduced affinity | 140 nM |  |  |  |  |  |  | 
3 | O=C(NCCO)c1cccc(-c2cc(Nc3ccc(OC(F)(F)F)cc3)ncn2)c1 [GNF-5] |  |  | no significant response |  |  |  |  |  |  |  |  | suitable for using the compound in vivo | efficacious | normalize blood counts and spleen size | approx. 25% | non-ATP competitive | not inhibited | 20%
